Test results taken from paper PMC11965388 (Nature Communications, 2025).

Tests used:
[1] = target: human α6β4 nAChR (α6β4^WT) (Homo sapiens, UniProt P30926+Q15825); assay: Two-electrode voltage clamp in Xenopus oocytes, wild-type α6β4; assay type: cell-based; details: times higher affinity than nicotine
pain = details: mice; cited from earlier work
neuropathic pain = details: cited from earlier work
[2] = target: T1, α6β4^L121F (human α6β4 nAChR, L121F in β4) (Homo sapiens, UniProt P30926+Q15825, L142F); details: L121F vs WT, two-electrode voltage clamp
[3] = target: T1, α6β4^L121F (human α6β4 nAChR, L121F in β4); assay: cell-based

T1 sequence (Q15825 31-494 limits assumed): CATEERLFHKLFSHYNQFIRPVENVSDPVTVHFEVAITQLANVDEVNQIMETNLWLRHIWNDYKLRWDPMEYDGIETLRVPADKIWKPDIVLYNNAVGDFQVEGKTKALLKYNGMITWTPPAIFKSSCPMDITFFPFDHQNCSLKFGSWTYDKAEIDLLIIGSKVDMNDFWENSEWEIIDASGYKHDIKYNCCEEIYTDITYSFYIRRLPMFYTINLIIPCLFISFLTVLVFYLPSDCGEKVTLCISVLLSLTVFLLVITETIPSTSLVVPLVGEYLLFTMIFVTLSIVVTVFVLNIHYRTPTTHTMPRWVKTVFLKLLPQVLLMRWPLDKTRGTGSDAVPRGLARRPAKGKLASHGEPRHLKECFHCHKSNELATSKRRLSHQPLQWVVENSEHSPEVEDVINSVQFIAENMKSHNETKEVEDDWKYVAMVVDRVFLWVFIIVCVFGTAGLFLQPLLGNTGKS
T1 sequence (P30926 22-498 L142F): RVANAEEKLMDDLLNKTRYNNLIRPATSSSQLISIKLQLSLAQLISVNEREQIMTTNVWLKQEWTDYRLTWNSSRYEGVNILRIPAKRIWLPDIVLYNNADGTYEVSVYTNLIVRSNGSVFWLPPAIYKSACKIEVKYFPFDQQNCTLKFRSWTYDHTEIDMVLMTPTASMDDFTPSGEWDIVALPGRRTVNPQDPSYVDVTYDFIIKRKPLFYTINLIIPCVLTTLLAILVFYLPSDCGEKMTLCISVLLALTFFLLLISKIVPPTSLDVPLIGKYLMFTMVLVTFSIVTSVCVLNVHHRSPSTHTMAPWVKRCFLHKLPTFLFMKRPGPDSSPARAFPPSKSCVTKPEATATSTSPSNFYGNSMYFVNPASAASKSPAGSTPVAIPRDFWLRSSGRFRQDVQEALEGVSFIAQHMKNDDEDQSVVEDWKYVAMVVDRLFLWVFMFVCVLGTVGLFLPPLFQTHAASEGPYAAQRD
Chain of human α6β4 nAChR (α6β4^WT) (Q15825 31-494 limits assumed): as the sequence (Q15825 31-494 limits assumed) above
Chain of human α6β4 nAChR (α6β4^WT) (P30926 22-498): as the sequence (P30926 22-498 L142F) above, with F121L counted along it

Compound | affinity for α6β4 relative to nicotine [1] | analgesic effect (pain) | analgesic activity against neuropathic pain (neuropathic pain) | increase of binding affinity of α6β4 for nicotine by L121F mutation in β4 [2] | EC50 [3] [nM]
Clc1ccc(OC[C@H]2CCN2)cn1 [tebanicline, (R)-5-(2-azetidinylmethoxy)-2-chloropyridine] | approximately 50 times | effective analgesics | potent analgesic activity |  | 
CN1CCC[C@H]1c1cccnc1 [nicotine] |  | effective analgesics |  | approximately 10 fold | 2200 ± 400
